Results from ChEMBL document CHEMBL4651402, “Screening of ~5500 FDA-approved drugs and clinical candidates for anti-SARS-CoV-2 activity” (2021).
pIC50: −log10 of the molar value.

System: SARS-CoV-2
Experiment: microbe, parasite or virus in culture
Conditions: Severe acute respiratory syndrome coronavirus 2, Vero C1008, 48 h; for IC50: read-out: pIC50 (converted)

Row | Compound | pIC50 | IC50 [µM]
1 | COc1cc(C)nc(-n2nc(C)cc2OC)n1 [EPIRIZOLE] | < 4.70 | > 20
2 | C[C@]12C[C@H]3S[C@H]3C[C@@H]1CC[C@@H]1[C@@H]2CC[C@]2(C)[C@@H](O)CC[C@@H]12 [EPITIOSTANOL] | < 4.70 | > 20
3 | CN(C)CCO/N=C(/C=C/c1ccc(O)cc1)c1ccccc1F [EPLIVANSERIN] | < 4.70 | > 20
4 | CC1(C)OC2(C)C(O)CC1CC2O (stereo not drawn) [EPOMEDIOL] | < 4.70 | > 20
5 | CCCCC[C@H](O)/C=C/[C@@H]1[C@H]2C/C(=C/CCCC(=O)O)O[C@H]2C[C@H]1O [EPOPROSTENOL] | < 4.70 | > 20
6 | C[C@]1(O)CC[C@H]2[C@@H]3CC[C@@]45O[C@]4(C)C(O)=C(C#N)C[C@]5(C)[C@H]3CC[C@@]21C [EPOSTANE] | < 4.70 | > 20
7 | C/C1=C/C[C@@H](/C(C)=C/c2csc(C)n2)OC(=O)C[C@H](O)C(C)(C)C(=O)[C@H](C)[C@@H](O)[C@@H](C)CCC1 [EPOTHILONE D] | < 4.70 | > 20
8 | O=C(NCCCN1CCOCC1)c1ccc(Cl)cc1 [EPROBEMIDE] | < 4.70 | > 20
9 | C[C@]12CC[C@H]3C(=CCc4cc(O)ccc43)[C@@H]1CCC2=O [EQUILIN] | < 4.70 | > 20
10 | CC(C)C[C@H]1C(=O)N2CCC[C@H]2[C@]2(O)O[C@](NC(=O)[C@@H]3C=C4c5cccc6[nH]cc(c56)C[C@H]4N(C)C3)(C(C)C)C(=O)N12 [ERGOCRYPTINE] | < 4.70 | > 20
11 | C[C@@H](CO)NC(=O)[C@@H]1C=C2c3cccc4[nH]cc(c34)C[C@H]2N(C)C1 [ERGONOVINE] | < 4.70 | > 20
12 | CN1C[C@H](C(=O)N[C@]2(C)O[C@@]3(O)[C@@H]4CCCN4C(=O)[C@H](Cc4ccccc4)N3C2=O)C=C2c3cccc4[nH]cc(c34)C[C@H]21 [ERGOTAMINE] | < 4.70 | > 20
13 | C#Cc1cccc(Nc2ncnc3cc(OCCOC)c(OCCOC)cc23)c1 [ERLOTINIB] | < 4.70 | > 20
14 | CCOc1ccc(Cc2cc([C@]34OC[C@](CO)(O3)[C@@H](O)[C@H](O)[C@H]4O)ccc2Cl)cc1 [ERTUGLIFLOZIN] | < 4.70 | > 20
15 | CCOC(=O)CCC(=O)O[C@H]1[C@H](O[C@@H]2[C@@H](C)[C@H](O[C@H]3C[C@@](C)(OC)[C@@H](O)[C@H](C)O3)[C@@H](C)C(=O)O[C@H](CC)[C@@](C)(O)[C@H](O)[C@@H](C)C(=O)[C@H](C)C[C@@]2(C)O)O[C@H](C)C[C@@H]1N(C)C [ERYTHROMYCIN ETHYLSUCCINATE] | < 4.70 | > 20
16 | CC[C@H]1OC(=O)[C@H](C)[C@@H](O[C@H]2C[C@@](C)(OC)[C@@H](O)[C@H](C)O2)[C@H](C)[C@@H](O[C@@H]2O[C@H](C)C[C@H](N(C)C)[C@H]2O)[C@](C)(O)C[C@@H](C)C(=O)[C@H](C)[C@@H](O)[C@]1(C)O [ERYTHROMYCIN] | < 4.70 | > 20
17 | O=C(CN1CCNCC1)NC1CCCCC1 [ESAPRAZOLE] | < 4.70 | > 20

Row | Compound | pIC50 | IC50 [µM]
18 | CC(C)NC[C@H](O)COc1ccc(CC(N)=O)cc1 [ESATENOLOL] | < 4.70 | > 20
19 | CN(C)CCC[C@@]1(c2ccc(F)cc2)OCc2cc(C#N)ccc21 [ESCITALOPRAM] | < 4.70 | > 20
20 | O=c1ccc2cc(O[C@@H]3O[C@H](CO)[C@@H](O)[C@H](O)[C@H]3O)c(O)cc2o1 [ESCULIN] | < 4.70 | > 20
21 | COC(=O)CCc1ccc(OCC(O)CNC(C)C)cc1 (stereo not drawn) [ESMOLOL] | < 4.70 | > 20
22 | COc1ccc2[nH]c([S@@+]([O-])Cc3ncc(C)c(OC)c3C)nc2c1 [ESOMEPRAZOLE] | < 4.70 | > 20
23 | CCN(CC)CC#CCOC(=O)[C@@](O)(c1ccccc1)C1CCCCC1 [ESOXYBUTYNIN] | < 4.70 | > 20
24 | C[C@]12CC[C@@H]3c4ccc(O)cc4CC[C@H]3[C@@H]1CC[C@@H]2OC(=O)CCC1CCCC1 [ESTRADIOL CYPIONATE] | < 4.70 | > 20
25 | C[C@]12CC[C@@H]3c4ccc(O)cc4CC[C@H]3[C@@H]1CC[C@@H]2O [ESTRADIOL] | < 4.70 | > 20
26 | C=CCc1ccc(OC)cc1 [ESTRAGOLE] | < 4.70 | > 20
27 | C[C@]12CC[C@@H]3c4ccc(O)cc4CC[C@H]3[C@@H]1C[C@@H](O)[C@@H]2O [ESTRIOL] | < 4.70 | > 20
28 | C[C@]12CC[C@@H]3c4ccc(OS(=O)(=O)O)cc4CC[C@H]3[C@@H]1CCC2=O [ESTRONE SULFURIC ACID] | < 4.70 | > 20
29 | C[C@]12CC[C@@H]3c4ccc(O)cc4CC[C@H]3[C@@H]1CCC2=O [ESTRONE] | < 4.70 | > 20
30 | CCN(CC)CCOc1ccccc1C(=O)CCc1ccccc1 [ETAFENONE] | < 4.70 | > 20
31 | O=C(Cn1ccnc1[N+](=O)[O-])NCCO [ETANIDAZOLE] | < 4.70 | > 20
32 | CCc1ccccc1-n1c(C)nc2ccccc2c1=O [ETAQUALONE] | < 4.60 | > 25.1
33 | CCOC(=O)c1cnc2c(cnn2CC)c1NN=C(C)C [ETAZOLATE] | < 4.70 | > 20
34 | CCC1(c2ccccc2)C(=O)N(COC)C(=O)N(COC)C1=O [ETEROBARB] | < 4.70 | > 20
